# Measured values: patent publication US20050033056A1, “Hydroxylated indole derivatives and uses thereof” (priority 2001, published 2005)
# Entries after “also recorded” stand apart in the source; their conditions may differ. Read-outs that look alike come from different tables or passages of the source.
# Assays:
# [1] = target: T1, cDNA-expressed recombinant CYP2D6 (Homo sapiens, UniProt P10635); assay: Apparent Ki with recombinant CYP2D6 (bufuralol 1'-hydroxylation; Dixon plots, SNLR); assay type: in vitro ADME; details: for Ki: recombinant CYP2D6
# T1 construct: purchased Gentest Corp. (Woburn, Mass.); host or cells: insect cells (microsomal preparation)
# Method: (§1) If inhibition was detected, the inhibitory potency was determined using recombinant CYPs. Compound 1 appeared to inhibit the activities of CYP2D6 and CYP2C19. Therefore, three concentrations of S-mephenyloin (30, 80, and 200 μM) and bufuralol (5, 10, and 40 μM), and a range of concentrations (0-200 μM) of Compound 1 were used for the construction of Dixon plots and simultaneously nonlinear regression (SNLR) analyses were performed. The incubation conditions and sample preparations were the same as previously described.
# 3. CYP2D6-mediated bufuralol 1′-hydroxylation (Boobis et al., Bioch. Pharmacol. 34:65-71, 1985): The HPLC system was interfaced with a SCIEX API2000 triple quadrupole mass spectrometer (PE Biosystem, Foster City, Calif.). A Sulpelco Discovery C18 column (150×2.1 mm) and isocratic mobile phase was applied. The mobile phase, 10 mM ammonium acetate-acetonitrile/60:40, was run at 0.2 mL/minute. The operation of the LC/MS/MS was controlled by use of software, MacChrom (Version 1.6). The MS/MS was operated at positive ESI with 5.5 kV ionization potential and 500° C. ion source temperature. Multiple reaction monitoring (MRM) was applied for the quantification. The MRM transition ions were m/z 278→186 for 1′-hydroxybufuralol, and m/z 266→234 for the internal standard (1S) albendazole.
# (§2) Data were acquired and analyzed by ChemStation (Version 6.03, Hewlett Packard, Waldbronn, Germany) for 6-, 7-, and 10-hydroxywarfarin and 6-hydroxychlorzoxazone, and MacQuan (Version 1.6, PE Biosystem, Foster City, Calif.) for 1′-hydroxybufuralol and 4′-hydroxymephenytoin. Quantification was based on peak area ratios of metabolites over the respective IS against the respective concentration of the metabolites. The standard curves were generated by linear regression with (6-, 7-, and 10-hydroxywarfarin, 1′-hydroxybufuralol, and 4′-hydroxymephenytoin) or without (6-hydroxychlorzoxazone) a weighting factor (1/x^2). The metabolic rates were determined using Excel (Microsoft Office 97, Microsoft Corporation, Redmond, Wash.) or SigmaPlot (Version 6.00, SPSS Inc. Chicago, Ill.). […]
# [2] = target: T2, cDNA-expressed recombinant CYP2C19 (Homo sapiens, UniProt P33261); assay: Apparent Ki with recombinant CYP2C19 (S-mephenyloin 4'-hydroxylation; Dixon plots, SNLR); assay type: in vitro ADME; details: for Ki: recombinant CYP2C19
# T2 construct: purchased Gentest Corp. (Woburn, Mass.); host or cells: insect cells (microsomal preparation)
# Method: as §1
# 4. CYP2C19-mediated S-mephenyloin 4′-hydroxylation (Goldstein et al., Biochemistry 33:1743-1752, 1994): The LC/MS/MS system, including the separation column, described for the bufuralol hydroxylation was used. The isocratic mobile phase, 100 mM formic acid-acetonitrile/75:25, was run at 0.25 ml/minutes. The operation of the LC/MS/MS was controlled by MacChrom (Version 1.6). The MS/MS was operated at positive ESI with a 5.5 kV ionization potential and 100° C. ion source temperature. MRM was applied for the quantification. The MRM transition ions were m/z 235→150 for 4′-hydroxymephenytoin, and m/z […] for the IS R-propranolol.
# as §2
# T2 sequence (P33261 whole entry): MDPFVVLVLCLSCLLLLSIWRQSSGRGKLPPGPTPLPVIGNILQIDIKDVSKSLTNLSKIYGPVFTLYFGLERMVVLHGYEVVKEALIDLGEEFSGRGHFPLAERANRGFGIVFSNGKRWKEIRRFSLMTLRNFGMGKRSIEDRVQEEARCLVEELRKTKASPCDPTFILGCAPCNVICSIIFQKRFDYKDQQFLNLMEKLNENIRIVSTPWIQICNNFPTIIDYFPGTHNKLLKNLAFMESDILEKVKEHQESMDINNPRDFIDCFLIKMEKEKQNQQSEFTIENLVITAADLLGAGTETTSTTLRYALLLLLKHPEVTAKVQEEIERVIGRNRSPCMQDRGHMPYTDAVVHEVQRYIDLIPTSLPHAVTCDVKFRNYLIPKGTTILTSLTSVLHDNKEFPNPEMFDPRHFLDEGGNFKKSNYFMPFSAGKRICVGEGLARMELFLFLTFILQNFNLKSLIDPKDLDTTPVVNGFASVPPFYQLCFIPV
# T1 sequence (P10635 whole entry): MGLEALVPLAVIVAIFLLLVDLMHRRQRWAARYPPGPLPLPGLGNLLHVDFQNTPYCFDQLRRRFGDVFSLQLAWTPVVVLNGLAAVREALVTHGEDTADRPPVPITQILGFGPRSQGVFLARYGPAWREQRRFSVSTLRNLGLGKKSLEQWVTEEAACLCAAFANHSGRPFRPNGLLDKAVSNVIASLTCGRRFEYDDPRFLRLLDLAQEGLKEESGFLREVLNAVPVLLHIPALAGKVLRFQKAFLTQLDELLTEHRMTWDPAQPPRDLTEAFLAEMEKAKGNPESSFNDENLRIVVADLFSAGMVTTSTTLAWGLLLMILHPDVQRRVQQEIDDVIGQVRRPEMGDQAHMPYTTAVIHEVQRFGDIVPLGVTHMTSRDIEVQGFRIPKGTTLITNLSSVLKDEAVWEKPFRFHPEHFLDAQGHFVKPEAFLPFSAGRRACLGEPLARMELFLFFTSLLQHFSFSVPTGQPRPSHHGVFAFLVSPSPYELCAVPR
smiles,measurement,setting,value
"CNC(=O)Cc1ccc2ccn(C3CCN(CCc4ccccc4F)CC3)c2c1 [Compound 1, N-methyl-[1-[1-(2-fluorophenethyl)piperidine-4-yl]-1H-indol-6-yl] acetamide]",type of inhibition of CYP2D6,[1]; Dixon plots and SNLR analyses,"competitive inhibitor; also recorded: primarily, if not fully, competitive"
same,Ki,"[1]; Dixon plots, bufuralol 5, 10, 40 μM, read-out: apparent Ki, CYP2D6, estimated by Dixon plots",~20 µM
same,Ki,"[1]; SNLR, competitive inhibition model, read-out: apparent Ki, CYP2D6 inhibition, determined by SNLR",15 µM
same,type of inhibition of CYP2C19,[2]; Dixon plots and SNLR analyses,"competitive inhibitor; also recorded: primarily, if not fully, competitive"
same,Ki,"[2]; Dixon plots, S-mephenyloin 30, 80, 200 μM, read-out: apparent Ki, CYP2C19, estimated by Dixon plots",25 to 45 µM
same,Ki,"[2]; SNLR, competitive inhibition model, read-out: apparent Ki, CYP2C19 inhibition, determined by SNLR",48 µM
